The target of one assay is T1, CFTR G551D mutant (Homo sapiens, UniProt P13569, G551D).
T1 construct: expressed in transfected cells; host or cells: HEK293 cells, reverse transfection with plasmids
As to the kind of experiment: YFP-halide influx assay for the CFTR-G551D mutation (HEK293 cells). Format: cell-based. The settings on record: forskolin 10.67 μM. In a few lines:
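HEK293 cells reverse-transfected with CFTR G551D and halide-sensitive YFP (H148Q/I152L/F47L), expressed 24 h at 37 °C. YFP fluorescence quenching recorded for 7 s after I⁻ injection. Response = 1−F/F0; EC50 derived from 1−F/F0 vs compound concentration.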

In a further assay the target is T2, CFTR ΔF508 mutant (Homo sapiens, UniProt P13569, DEL508-508).
T2 construct: expressed in transfected cells; host or cells: CFBE41o- cells, adenoviral transduction
T2 sequence (P13569 with tags, fused parts or gaps DEL508-508): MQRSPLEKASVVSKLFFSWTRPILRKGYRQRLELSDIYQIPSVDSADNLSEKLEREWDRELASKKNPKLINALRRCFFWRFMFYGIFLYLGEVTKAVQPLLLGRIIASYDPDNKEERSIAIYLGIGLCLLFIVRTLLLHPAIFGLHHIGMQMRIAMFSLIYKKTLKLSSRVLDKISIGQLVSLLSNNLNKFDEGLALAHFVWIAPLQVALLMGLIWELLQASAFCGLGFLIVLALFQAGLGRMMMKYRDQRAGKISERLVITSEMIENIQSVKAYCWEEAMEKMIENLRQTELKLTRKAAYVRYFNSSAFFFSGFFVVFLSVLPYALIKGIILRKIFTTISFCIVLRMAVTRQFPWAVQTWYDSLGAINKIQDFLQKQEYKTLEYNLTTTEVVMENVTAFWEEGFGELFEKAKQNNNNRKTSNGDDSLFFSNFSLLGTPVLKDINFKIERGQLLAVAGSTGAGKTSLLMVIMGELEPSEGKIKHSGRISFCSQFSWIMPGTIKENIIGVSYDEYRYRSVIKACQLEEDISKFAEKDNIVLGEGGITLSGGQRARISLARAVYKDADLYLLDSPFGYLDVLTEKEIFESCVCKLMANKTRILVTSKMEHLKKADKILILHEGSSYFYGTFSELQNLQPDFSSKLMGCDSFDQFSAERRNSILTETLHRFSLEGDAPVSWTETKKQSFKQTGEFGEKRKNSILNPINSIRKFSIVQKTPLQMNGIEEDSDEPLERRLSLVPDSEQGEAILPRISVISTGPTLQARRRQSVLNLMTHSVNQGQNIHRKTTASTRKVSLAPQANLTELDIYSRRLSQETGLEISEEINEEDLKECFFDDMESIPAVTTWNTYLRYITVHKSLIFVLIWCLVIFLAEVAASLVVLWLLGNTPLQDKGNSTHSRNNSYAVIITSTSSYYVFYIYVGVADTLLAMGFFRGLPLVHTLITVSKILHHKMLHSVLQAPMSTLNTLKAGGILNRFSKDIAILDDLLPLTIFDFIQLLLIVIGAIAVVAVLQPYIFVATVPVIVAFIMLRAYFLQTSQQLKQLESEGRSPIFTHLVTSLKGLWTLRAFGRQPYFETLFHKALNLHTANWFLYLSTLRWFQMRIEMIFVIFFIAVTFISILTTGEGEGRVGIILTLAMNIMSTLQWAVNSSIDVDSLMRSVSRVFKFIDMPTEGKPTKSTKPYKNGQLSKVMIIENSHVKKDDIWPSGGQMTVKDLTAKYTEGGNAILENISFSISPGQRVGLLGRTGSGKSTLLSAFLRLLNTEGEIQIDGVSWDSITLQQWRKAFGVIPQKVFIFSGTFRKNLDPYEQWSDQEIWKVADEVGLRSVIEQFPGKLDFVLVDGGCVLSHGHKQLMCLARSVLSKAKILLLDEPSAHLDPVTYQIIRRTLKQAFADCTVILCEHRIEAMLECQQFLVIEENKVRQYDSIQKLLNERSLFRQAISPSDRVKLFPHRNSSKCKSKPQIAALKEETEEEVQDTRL
As to the kind of experiment: YFP-halide influx assay for the CFTR-ΔF508 mutation (CFBE41o- cells). The format is cell-based. The following applies: forskolin 10.67 μM; for EC50: from (1−F/F0) vs concentration plot. In a few lines: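 CFBE41o- cells transduced with adenovirus expressing CFTR ΔF508 and halide-sensitive YFP H148Q/I152L/F47L, then held 24 h at 27° C or with a CFTR modulator 24 h at 37° C. Iodide-induced quench recorded 2 min; EC50 from (1−F/F0) at 36 s versus concentration.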

Some results are limits rather than exact numbers.

T1 sequence (P13569 whole entry G551D): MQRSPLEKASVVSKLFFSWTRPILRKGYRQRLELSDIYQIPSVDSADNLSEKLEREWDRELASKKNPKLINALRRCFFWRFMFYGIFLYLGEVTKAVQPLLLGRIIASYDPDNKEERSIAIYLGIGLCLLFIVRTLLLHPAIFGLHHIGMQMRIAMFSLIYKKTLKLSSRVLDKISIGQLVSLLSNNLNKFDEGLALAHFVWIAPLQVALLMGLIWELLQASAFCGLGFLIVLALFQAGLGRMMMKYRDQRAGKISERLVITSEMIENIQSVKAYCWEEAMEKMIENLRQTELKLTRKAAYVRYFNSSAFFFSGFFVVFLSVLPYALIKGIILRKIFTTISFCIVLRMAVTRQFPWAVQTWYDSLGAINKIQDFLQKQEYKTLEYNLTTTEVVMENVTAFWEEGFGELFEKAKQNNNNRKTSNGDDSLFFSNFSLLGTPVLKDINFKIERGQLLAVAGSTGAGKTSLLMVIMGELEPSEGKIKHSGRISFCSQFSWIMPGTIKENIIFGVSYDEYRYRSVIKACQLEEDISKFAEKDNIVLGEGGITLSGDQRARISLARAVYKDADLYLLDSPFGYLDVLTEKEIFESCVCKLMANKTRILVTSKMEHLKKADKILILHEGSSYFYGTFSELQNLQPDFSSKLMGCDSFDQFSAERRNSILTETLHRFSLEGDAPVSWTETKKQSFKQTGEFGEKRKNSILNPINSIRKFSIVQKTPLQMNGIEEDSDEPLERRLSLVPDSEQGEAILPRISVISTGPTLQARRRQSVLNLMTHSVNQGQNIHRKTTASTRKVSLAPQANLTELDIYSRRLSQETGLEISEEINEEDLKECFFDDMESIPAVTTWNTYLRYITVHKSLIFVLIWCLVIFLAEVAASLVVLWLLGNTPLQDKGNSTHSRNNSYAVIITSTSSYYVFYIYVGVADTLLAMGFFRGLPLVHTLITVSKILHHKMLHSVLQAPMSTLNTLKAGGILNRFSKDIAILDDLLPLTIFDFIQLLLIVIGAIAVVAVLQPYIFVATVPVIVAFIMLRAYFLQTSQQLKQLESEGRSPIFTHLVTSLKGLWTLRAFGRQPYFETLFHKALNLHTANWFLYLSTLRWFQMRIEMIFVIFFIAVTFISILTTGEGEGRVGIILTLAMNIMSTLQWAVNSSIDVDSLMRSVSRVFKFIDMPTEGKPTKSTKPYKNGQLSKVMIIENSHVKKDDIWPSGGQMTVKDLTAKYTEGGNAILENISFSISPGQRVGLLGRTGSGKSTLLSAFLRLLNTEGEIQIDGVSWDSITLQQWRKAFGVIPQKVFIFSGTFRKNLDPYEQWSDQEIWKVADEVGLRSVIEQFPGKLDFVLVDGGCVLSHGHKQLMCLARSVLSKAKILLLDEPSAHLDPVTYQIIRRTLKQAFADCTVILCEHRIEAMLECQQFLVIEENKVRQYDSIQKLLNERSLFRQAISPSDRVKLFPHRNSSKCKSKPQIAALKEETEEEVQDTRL

A word on the EC50: it is the concentration at which the effect is half-maximal. With `CC(C)(O)CCNC(=O)c1ncc(S(=O)(=O)c2ccc(OC(F)(F)F)cc2)cc1N` [Compound 51, 3-amino-N-(3-hydroxy-3-methylbutyl)-5-{[4-(trifluoromethoxy)phenyl]sulfonyl}pyridine-2-carboxamide], on CFTR G551D mutant, the “% Activation” value is reported as 51.2% and the EC50 amounted to 1130 nM. Besides, at CFTR ΔF508 mutant, the “% Activation” value is listed as 96.8% and the EC50 was found to be 30.2 nM.
Take `CC(C)OC[C@@H](O)CNC(=O)c1ncc(S(=O)(=O)c2ccc(C(F)(F)F)cc2)cc1N` [Compound 243, 3-amino-N-[(2S)-2-hydroxy-3-(propan-2-yloxy)propyl]-5-{[4-(trifluoromethyl)phenyl]sulfonyl}pyridine-2-carboxamide]: on CFTR G551D mutant, the “% Activation” value is recorded as 99.0% and it took 639 nM to reach a half-maximal effect (EC50). For the same molecule, on CFTR ΔF508 mutant, the “% Activation” value turned out to be 111.5% and the EC50 turned out to be 8.3 nM.
For `CC1(C)CN(C(=O)c2ncc(S(=O)(=O)c3ccc(C(F)(F)F)cc3)cc2N)C1` [Compound 110, (3-amino-5-{[4-(trifluoromethyl)phenyl]sulfonyl}pyridin-2-yl)(3,3-dimethylazetidin-1-yl)methanone] the same measures were 83.6%, 1140 nM, 116.0% and 33.5 nM.
Consider `Nc1cc(S(=O)(=O)c2ccc(OC(F)(F)F)cc2F)cnc1C(=O)NC[C@H]1CCOC1` [Compound 115, 3-amino-5-{[2-fluoro-4-(trifluoromethoxy)phenyl]sulfonyl}-N-[(3R)-tetrahydrofuran-3-ylmethyl]pyridine-2-carboxamide], for which, on CFTR G551D mutant, the “% Activation” value is 40.6% and a half-maximal response (EC50) required 900 nM. At CFTR ΔF508 mutant, the “% Activation” value was found to be 102.3% and a half-maximal response (EC50) required 34.9 nM.
Regarding `Nc1cc(S(=O)(=O)c2ccc(C(F)(F)F)cc2)cnc1C(=O)NCC(O)COCC1CC1` (stereo not drawn) [Compound 131, 3-amino-N-[3-(cyclopropylmethoxy)-2-hydroxypropyl]-5-{[4-(trifluoromethyl)phenyl]sulfonyl}pyridine-2-carboxamide], at CFTR G551D mutant, the “% Activation” value was 68.6% and the EC50 came out at 817 nM. Also, at CFTR ΔF508 mutant, the “% Activation” value is 110.2% and it took 12.8 nM to reach a half-maximal effect (EC50).
For `Nc1cc(S(=O)(=O)c2ccc(F)cc2)cnc1C(=O)NCCC(O)C(F)(F)F` (stereo not drawn) [Compound 72, 3-amino-5-[(4-fluorophenyl)sulfonyl]-N-(4,4,4-trifluoro-3-hydroxybutyl)pyridine-2-carboxamide] the same measures were 44.2%, greater than 3330 nM, 89.3% and 21.8 nM.
As to `CC(C)COCC(O)CNC(=O)c1ncc(S(=O)(=O)c2ccc(C(F)(F)F)cc2)cc1N` (stereo not drawn) [Compound 166, 3-amino-N-[2-hydroxy-3-(2-methylpropoxy)propyl]-5-{[4-(trifluoromethyl)phenyl]sulfonyl}pyridine-2-carboxamide], on CFTR G551D mutant, the “% Activation” value was 69.3% and the concentration for a half-maximal effect (EC50) turned out to be 661 nM. Besides, on CFTR ΔF508 mutant, the “% Activation” value came to 111.7% and the EC50 was determined as 17.5 nM.
For the molecule `Nc1cc(S(=O)(=O)c2ccc(OC(F)(F)F)cc2)cnc1C(=O)N1CC(N2CCOCC2)C1` [Compound 60, (3-amino-5-{[4-(trifluoromethoxy)phenyl]sulfonyl}pyridin-2-yl)[3-(morpholin-4-yl)azetidin-1-yl]methanone], at CFTR G551D mutant, the “% Activation” value is listed as 71.1% and a half-maximal effect (EC50) was put at 3120 nM. Further, at CFTR ΔF508 mutant, the “% Activation” value was 105.0% and the EC50 stood at 67.2 nM.
Turning to `CCOCC(O)CNC(=O)c1ncc(S(=O)(=O)c2ccc(OC(F)(F)F)cc2)cc1N` (stereo not drawn) [Compound 88, 3-amino-N-(3-ethoxy-2-hydroxypropyl)-5-{[4-(trifluoromethoxy)phenyl]sulfonyl}pyridine-2-carboxamide], on CFTR G551D mutant, the “% Activation” value stood at 82.0% and it took 762 nM to reach a half-maximal effect (EC50). Also, on CFTR ΔF508 mutant, the “% Activation” value is 96.0% and the EC50 came out at 12.4 nM.

The values are drawn from US10047051B2, “Substituted pyridines and method of use” (AbbVie S.á{acute over (.)}r.l., priority 2015, dated 2018).
